Results taken from ChEMBL document CHEMBL1142165, “Influence on mitochondria and cytotoxicity of different antibiotics administered in high concentrations on primary human osteoblasts and cell lines” (Antimicrob Agents Chemother, 2007).
Converted amounts (≈) assume the structure as drawn. The source made the active and inactive calls. The rule behind the calls is not given here.

Assays:
[1] = Cytotoxicity against primary human osteoblasts at 400 ug/ml assessed as LDH release after 24 hrs; settings: osteoblast, at 400 µg/mL
[2] = Cytotoxicity against primary human osteoblasts at 100 ug/ml assessed as LDH release after 24 hrs; format: cell-based; settings: osteoblast
[3] = Cytotoxicity against primary human osteoblasts at 200 ug/ml assessed as LDH release after 24 hrs; format: cell-based; settings: osteoblast
[4] = Antiproliferative effect against primary human osteoblasts assessed as BrdU incorporation into DNA after 48 hrs; format: functional, cell-based; settings: Osteoblast
Osteoblast [5] = assay: Inhibition of metabolic activity in primary human osteoblasts assessed as MTT reduction after 48 hrs; format: functional, cell-based
MG-63 [6] = assay: Antiproliferative effect against MG63 cells assessed as BrdU incorporation into DNA after 48 hrs after 48 hrs; format: functional, cell-based; settings: Homo sapiens, MG-63, 48 h
MG-63 [7] = assay: Inhibition of metabolic activity in MG63 cells assessed as MTT reduction after 48 hrs; format: functional, cell-based; settings: Homo sapiens, MG-63, 48 h
HeLa [8] = assay: Antiproliferative effect against HeLa cells after 48 hrs; format: functional, cell-based; settings: Homo sapiens
HeLa [9] = assay: Inhibition of metabolic activity in HeLa cells assessed as MTT reduction after 48 hrs; format: functional, cell-based; settings: Homo sapiens
Osteoblast [10] = assay: Blocking of clindamycin-induced lactate production in primary human osteoblasts at 20 mM by ELISA; format: functional, cell-based
Osteoblast [11] = assay: Blocking of clindamycin-induced LDH release in primary human osteoblasts at 20mM by ELISA; format: functional, cell-based
Osteoblast [12] = assay: Increase in lactate production in primary human osteoblasts at 400 ug/ml by ELISA relative to control; format: functional
Osteoblast [13] = assay: Increase in lactate production in primary human osteoblasts at 1.5 ug/ml by ELISA; format: functional
Osteoblast [14] = assay: Antiproliferative effect against primary human osteoblasts in presence of 10% FCS; format: functional, cell-based
Osteoblast [15] = assay: Increase in lactate production in primary human osteoblasts at 190 ug/ml by ELISA; format: functional
MG-63 [16] = assay: Decrease in lactate production in MG63 cells at 400 ug/ml by ELISA; format: functional, Homo sapiens; design: scale not given: the % may be the effect or the level left
HeLa [17] = assay: Decrease in lactate production in HeLa cells at 400 ug/ml by ELISA; format: functional, Homo sapiens; design: scale not given: the % may be the effect or the level left
MG-63 [18] = assay: Increase in lactate production in MG63 cells at 400 ug/ml by ELISA relative to control; format: functional, Homo sapiens
Osteoblast [19] = assay: Increase in lactate production in primary human osteoblasts at 1 uM after 1 hr by ELISA; format: functional, cell-based
MG-63 [20] = assay: Increase in lactate production in MG63 cells at 1 uM after 1 hr by ELISA; format: functional, cell-based; settings: Homo sapiens
Osteoblast [21] = assay: Inhibition of metabolic activity in primary human osteoblasts in presence of 10% FCS; format: functional
MG-63 [22] = assay: Decrease in lactate production in MG63 cells by ELISA; format: functional, cell-based; settings: Homo sapiens
HeLa [23] = assay: Decrease in lactate production in HeLa cells by ELISA; format: functional, cell-based; settings: Homo sapiens
Osteoblast [24] = assay: Antiproliferative effect against primary human osteoblasts assessed as BrdU incorporation into DNA at 10 ug/ml after 48 hrs; format: functional, cell-based
Osteoblast [25] = assay: Increase in lactate production in primary human osteoblasts at 25 to 50 ug/ml by ELISA; format: functional
Osteoblast [26] = assay: Increase in lactate production in primary human osteoblasts at 6 ug/ml by ELISA; format: functional

| Compound | Activity [1] | IC20 [4] | IC50 [4] | IC20 (Osteoblast [5]) | IC50 (Osteoblast [5]) | IC20 (MG-63 [6]) | IC50 (MG-63 [6]) | IC20 (MG-63 [7]) | IC50 (MG-63 [7]) | IC20 (HeLa [8]) | IC50 (HeLa [8]) | IC20 (HeLa [9]) | IC50 (HeLa [9]) | further results |
| --- | --- | --- | --- | --- | --- | --- | --- | --- | --- | --- | --- | --- | --- | --- |
| CC[C@H]1OC(=O)[C@H](C)[C@@H](O[C@H]2C[C@@](C)(OC)[C@@H](O)[C@H](C)O2)[C@H](C)[C@@H](O[C@@H]2O[C@H](C)C[C@H](N(C)C)[C@H]2O)[C@](C)(O)C[C@@H](C)/C(=N\OCOCCOC)[C@H](C)[C@@H](O)[C@]1(C)O [ROXITHROMYCIN] | 40% | 20 µg/mL (≈ 23.9 µM) | 70 µg/mL (≈ 83.6 µM) | 110 µg/mL (≈ 131 µM) | 210 µg/mL (≈ 251 µM) | 50 µg/mL (≈ 59.7 µM) | 180 µg/mL (≈ 215 µM) | 50 µg/mL (≈ 59.7 µM) | 110 µg/mL (≈ 131 µM) | 100 µg/mL (≈ 119 µM) | 160 µg/mL (≈ 191 µM) | 30 µg/mL (≈ 35.8 µM) | 90 µg/mL (≈ 108 µM) | Activity [2]: 20%; Activity [3]: 30% |
| Nc1ncnc2c1ncn2[C@@H]1O[C@H](CO)[C@@H](O)[C@H]1O |  |  |  |  |  |  |  |  |  |  |  |  |  | Activity (Osteoblast [10]): Active; Activity (Osteoblast [11]): Active |
| O=C(N[C@H](CO)[C@H](O)c1ccc([N+](=O)[O-])cc1)C(Cl)Cl [CHLORAMPHENICOL] |  | 60 µg/mL (≈ 186 µM) | 230 µg/mL (≈ 712 µM) | 260 µg/mL (≈ 805 µM) | > 400 µg/mL | 200 µg/mL (≈ 619 µM) | > 400 µg/mL | 110 µg/mL (≈ 340 µM) | 400 µg/mL (≈ 1240 µM) | 340 µg/mL (≈ 1050 µM) | > 400 µg/mL | 100 µg/mL (≈ 309 µM) | 340 µg/mL (≈ 1050 µM) | Activity (Osteoblast [12]): 150%; Activity (Osteoblast [13]): 12%; Activity (Osteoblast [14]): Active |
| CN(C)[C@@H]1C(O)=C(C(N)=O)C(=O)[C@@]2(O)C(O)=C3C(=O)c4c(O)cccc4[C@@](C)(O)[C@H]3C[C@@H]12 [TETRACYCLINE] |  | 60 µg/mL (≈ 135 µM) | 180 µg/mL (≈ 405 µM) |  |  | 60 µg/mL (≈ 135 µM) | 180 µg/mL (≈ 405 µM) |  |  | 200 µg/mL (≈ 450 µM) | > 400 µg/mL |  |  | Activity (Osteoblast [15]): 30%; Activity (MG-63 [16]): 50%; Activity (HeLa [17]): 50% |
| Cc1nnc(SCC2=C(C(=O)O)N3C(=O)[C@@H](NC(=O)Cn4cnnn4)[C@H]3SC2)s1 [CEFAZOLIN] |  | 380 µg/mL (≈ 836 µM) | > 400 µg/mL | > 400 µg/mL | > 400 µg/mL | 230 µg/mL (≈ 506 µM) | > 400 µg/mL | 400 µg/mL (≈ 880 µM) | > 400 µg/mL | 270 µg/mL (≈ 594 µM) | > 400 µg/mL | > 400 µg/mL | > 400 µg/mL |  |
| CC[C@H]1OC(=O)[C@H](C)[C@@H](O[C@H]2C[C@@](C)(OC)[C@@H](O)[C@H](C)O2)[C@H](C)[C@@H](O[C@@H]2O[C@H](C)C[C@H](N(C)C)[C@H]2O)[C@](C)(O)C[C@@H](C)CN(C)[C@H](C)[C@@H](O)[C@]1(C)O [AZITHROMYCIN] | 40% | 20 µg/mL (≈ 26.7 µM) | 25 µg/mL (≈ 33.4 µM) | 80 µg/mL (≈ 107 µM) | 160 µg/mL (≈ 214 µM) | 30 µg/mL (≈ 40.1 µM) | 190 µg/mL (≈ 254 µM) | 70 µg/mL (≈ 93.5 µM) | 180 µg/mL (≈ 240 µM) | 110 µg/mL (≈ 147 µM) | 240 µg/mL (≈ 320 µM) | 50 µg/mL (≈ 66.8 µM) | 160 µg/mL (≈ 214 µM) | Activity [2]: 20%; Activity [3]: 40%; Activity (MG-63 [18]): 30% |
| GENTAMICIN |  |  |  |  |  |  |  |  |  |  |  |  |  | Activity (Osteoblast [14]): inactive |
| C=C(C)[C@H]1Cc2c(ccc3c2O[C@@H]2COc4cc(OC)c(OC)cc4[C@@H]2C3=O)O1 |  |  |  |  |  |  |  |  |  |  |  |  |  | Activity (Osteoblast [19]): Active; Activity (MG-63 [20]): Active |
| CCC[C@@H]1C[C@@H](C(=O)N[C@@H]([C@H]2O[C@H](SC)[C@H](O)[C@@H](O)[C@H]2O)[C@H](C)Cl)N(C)C1 [CLINDAMYCIN] | 10% | 40 µg/mL (≈ 94.1 µM) | 150 µg/mL (≈ 353 µM) | 340 µg/mL (≈ 800 µM) | > 400 µg/mL | 160 µg/mL (≈ 376 µM) | 250 µg/mL (≈ 588 µM) | 200 µg/mL (≈ 471 µM) | > 400 µg/mL | 230 µg/mL (≈ 541 µM) | > 400 µg/mL | 80 µg/mL (≈ 188 µM) | 200 µg/mL (≈ 471 µM) | IC20 (Osteoblast [21]): 20 µg/mL; Activity (MG-63 [22]): Active; Activity (HeLa [23]): Active; Activity (MG-63 [18]): 60%; Activity (Osteoblast [14]): Active |
| O=C(O)c1cn(C2CC2)c2cc(N3CCNCC3)c(F)cc2c1=O [CIPROFLOXACIN] |  | 70 µg/mL (≈ 211 µM) | 170 µg/mL (≈ 513 µM) | 260 µg/mL (≈ 785 µM) | > 400 µg/mL | 80 µg/mL (≈ 241 µM) | 160 µg/mL (≈ 483 µM) | 60 µg/mL (≈ 181 µM) | 150 µg/mL (≈ 453 µM) | 100 µg/mL (≈ 302 µM) | 290 µg/mL (≈ 875 µM) | 70 µg/mL (≈ 211 µM) | 120 µg/mL (≈ 362 µM) | Activity (Osteoblast [24]): Active; Activity (Osteoblast [25]): 10% |
| CO[C@H]1/C=C/O[C@@]2(C)Oc3c(C)c(O)c4c(O)c(c(/C=N/N5CCN(C)CC5)c(O)c4c3C2=O)NC(=O)/C(C)=C\C=C\[C@H](C)[C@H](O)[C@@H](C)[C@@H](O)[C@@H](C)[C@H](OC(C)=O)[C@@H]1C [RIFAMPIN] |  | 30 µg/mL (≈ 36.5 µM) | 130 µg/mL (≈ 158 µM) |  |  | 120 µg/mL (≈ 146 µM) | 240 µg/mL (≈ 292 µM) |  |  | 180 µg/mL (≈ 219 µM) | 270 µg/mL (≈ 328 µM) |  |  | Activity (Osteoblast [12]): 40% |
| CC(=O)NC[C@H]1CN(c2ccc(N3CCOCC3)c(F)c2)C(=O)O1 [LINEZOLID] |  | 240 µg/mL (≈ 711 µM) | > 400 µg/mL | > 400 µg/mL | > 400 µg/mL |  |  | 250 µg/mL (≈ 741 µM) | > 400 µg/mL |  |  | 300 µg/mL (≈ 889 µM) | > 400 µg/mL | Activity (Osteoblast [12]): 120%; Activity (Osteoblast [26]): 13% |
| COc1c(N2C[C@@H]3CCCN[C@@H]3C2)c(F)cc2c(=O)c(C(=O)O)cn(C3CC3)c12 [MOXIFLOXACIN] | 10% | 80 µg/mL (≈ 199 µM) | 160 µg/mL (≈ 399 µM) | 190 µg/mL (≈ 473 µM) | > 400 µg/mL | 110 µg/mL (≈ 274 µM) | 230 µg/mL (≈ 573 µM) | 30 µg/mL (≈ 74.7 µM) | 170 µg/mL (≈ 423 µM) | 90 µg/mL (≈ 224 µM) | 320 µg/mL (≈ 797 µM) | 40 µg/mL (≈ 99.6 µM) | 110 µg/mL (≈ 274 µM) | Activity (Osteoblast [24]): Active; Activity (Osteoblast [25]): 10% |
| CC[C@H]1OC(=O)[C@H](C)[C@@H](O[C@H]2C[C@@](C)(OC)[C@@H](O)[C@H](C)O2)[C@H](C)[C@@H](O[C@@H]2O[C@H](C)C[C@H](N(C)C)[C@H]2O)[C@](C)(O)C[C@@H](C)C(=O)[C@H](C)[C@@H](O)[C@]1(C)O [ERYTHROMYCIN] | 40% | 30 µg/mL (≈ 40.9 µM) | 180 µg/mL (≈ 245 µM) | 210 µg/mL (≈ 286 µM) | > 400 µg/mL | 130 µg/mL (≈ 177 µM) | 300 µg/mL (≈ 409 µM) | 180 µg/mL (≈ 245 µM) | 310 µg/mL (≈ 422 µM) | 210 µg/mL (≈ 286 µM) | > 400 µg/mL | 110 µg/mL (≈ 150 µM) | 170 µg/mL (≈ 232 µM) | IC20 (Osteoblast [21]): 11 µg/mL; Activity (MG-63 [18]): 60%; Activity (Osteoblast [14]): Active |
